According to patent US8119671B2, “Isoxazoline-substituted benzamide compound and pest control agent” (Nissan Chemical Industries, Ltd., priority 2007, dated 2012):

Columns and labels:
Type in all cases: in vivo
[1] = test system: Bemisia argentifolii; test: Test Example 9: Mortality Test for Bemisia argentifolii; settings: in Solanum lycopersicum, 144 h
Method: In a styrol cup having an inner diameter of 7 cm, a wet filtration paper was laid, and on the paper, a cut-out leaf of tomato on which Bemisia argentifolii laid eggs (10 eggs/leaf) was laid. A 10% emulsifiable concentrate of the compound of the present invention (depending on the type of the compound, a 10% wettable powder was subjected to the test) was diluted with water containing a spreader to prepare a drug solution in a concentration of 500 ppm. The drug solution was dusted using a rotary dusting tower in an amount of 2.5 mL per styrol cup and the cup was capped and stored in a thermostat room of 25° C. The number of killed larvae after 6 days was measured and the mortality was calculated from the same calculation formula as that in Test Example 1. Here, the test was carried out with two replications.

[2] = test system: Thrips palmi; test: Test Example 6: Mortality Test for Thrips palmi; settings: 48 h
Method: (§1) In a styrol cup having an inner diameter of 7 cm, a wet filtration paper was laid, and on the paper, a leaf of kidney bean cut out so as to have the same diameter as the inner diameter of the cup was laid, followed by inoculating 10 imagines of Thrips palmi per leaf to the leaf. A 10% emulsifiable concentrate of the compound of the present invention (depending on the type of the compound, a 10% wettable powder was subjected to the test) was diluted with water containing a spreader to prepare a drug solution in a concentration of 100 ppm. The drug solution was dusted using a rotary dusting tower in an amount of 2.5 mL per one styrol cup and the cup was capped and stored in a thermostat room of 25° C. The number of killed imagines after 2 days was measured and the mortality was calculated from the same calculation formula as that in Test Example 1. Here, the test was carried out with two replications.

[3] = test system: American dog ticks (Dermacentor variabilis); test: Test Example 16: Mortality Test for American Dog Tick; settings: 96 h, thin film in petri dishes, 0.1 μg/cm^2 (acetone solution 100 ppm), protonymphs, after 4 days
Method: To the bottom surfaces and the side surfaces of two petri dishes having an inner diameter of 5.3 cm, 400 μL of an acetone solution in which 4 mg of a compound of the present invention was dissolved in 40 mL of acetone (concentration: 100 ppm) was applied and the acetone was volatilized to form a thin film of the compound of the present invention on the inner walls of the petri dishes. The inner wall of the used petri dish has an area of 40 cm^2, so that the amount of the applied drug is 0.1 μg/cm^2. In one petri dish, 10 American dog ticks (Dermacentor variabilis) protonymphs (male and female were mixed) were released and the petri dish was capped with the other petri dish. The seam part of the two petri dishes was sealed with a tape so that the protonymphs could not flee and the two petri dishes were stored in a thermostat room of 25° C. The number of killed protonymphes after 4 days was measured and the mortality was calculated from the same calculation formula as that in Test Example 1. Here, the test was carried out on the single sample.

[4] = test system: Eysarcoris lewisi; test: Test Example 7: Mortality Test for Eysarcoris lewisi; settings: in Oryza sativa, 48 h
Method: A 10% emulsifiable concentrate of the compound of the present invention (depending on the type of the compound, a 10% wettable powder was subjected to the test) was diluted with water containing a spreader to prepare a drug solution in a concentration of 500 ppm. In this drug solution, a leaf sheath of Oryza sativa was immersed for about 10 seconds and was air-dried and then put into a test tube. In the test tube, five 1 instar larvae of Eysarcoris lewisi per one test tube were released and the test tube was capped with a sponge and stored in a thermostat room of 25° C. The number of killed larvae after 2 days was measured and the mortality was calculated from the same calculation formula as that in Test Example 1. Here, the test was carried out with two replications.

[5] = test system: Frankliniella occidentalis; test: Test Example 5: Mortality Test for Frankliniella occidentalis; settings: 48 h
Method: as §1, with “ten 1 instar larvae” for “10 imagines”, “Frankliniella occidentalis” for “Thrips palmi”, “500” for “100”, “per” for “per one”, “larvae” for “imagines”

[6] = test system: Ctenocephalides felis; test: Test Example 15: Mortality Test for Cat Flea; settings: 96 h
Method: To the bottom surface and the side surface of a petri dish having an inner diameter of 5.3 cm, 400 μL of an acetone solution in which 40 mg of the compound of the present invention was dissolved in 40 mL of acetone (concentration: 1,000 ppm) was applied and the acetone was volatilized to form a thin film of the compound of the present invention on the inner wall of the petri dish. The inner wall of the used petri dish has an area of 40 cm^2, so that the amount of the applied drug is 1 μg/cm^2. In the petri dish, 10 Ctenocephalides felis imagines (male and female were mixed) were released and the petri dish was capped and stored in a thermostat room of 25° C. The number of killed larvae after 4 days was measured and the mortality was calculated from the same calculation formula as that in Test Example 1. Here, the test was carried out on the single sample.

[7] = test system: Myzus persicae; test: Test Example 10: Mortality Test for Myzus persicae; settings: 144 h
Method: In a glass petri dish having an inner diameter of 3 cm, a wet absorbent cotton was laid, and on the cotton, a leaf of canarium album cut out so as to have the same diameter as the inner diameter of the petri dish was laid, followed by releasing 4 apterous imagines of Myzus persicae on the leaf. After one day, 10% emulsifiable concentrate of the compound of the present invention (depending on the type of the compound, a 10% wettable powder was subjected to the test) was diluted with water containing a spreader to prepare a drug solution in a concentration of 500 ppm. The drug solution was dusted using a rotary dusting tower (2.5 mg/cm^2) and the petri dish was capped and stored in a thermostat room of 25° C. The number of killed imagines after 6 days was measured and the mortality was calculated from the same calculation formula as that in Test Example 1. Here, the test was carried out with two replications.

Cc1cc(C2=NOC(c3cc(Cl)cc(Cl)c3)(C(F)(F)F)C2)ccc1C(=O)NC1(c2ccccn2)CC1 (stereo not shown) [No. 1-007, 4-[5-(3,5-Dichlorophenyl)-5-trifluoromethyl-4,5-dihydroisoxazole-3-yl]-2-methyl-N-[1-(2-pyridyl)cyclopropyl]benzamide]
≥ 80%: mortality at 500 ppm [1] | mortality at 100 ppm [2] | mortality at 100 ppm, 0.1 µg/cm2 [3] | mortality at 500 ppm [4] | mortality at 500 ppm [5] | mortality at 1000 ppm, 1 µg/cm2 [6] | mortality at 500 ppm [7]
